Reference: patent publication US12617779B2, “Self degradation-type CDK9 inhibitor prodrug and liposome encapsulating same” (Sumitomo Pharma Co., Ltd., priority 2021, dated 2026)
Where a name gives a salt, the structure may show the parent alone.

Assay: Evaluation of conversion rate to active form in buffer solution (Experimental Example 1)
Assay type: physicochemical
Conditions: for Production rate of Alvocidib / Residual rate: 25 umol/L in buffer solution; for Stability in buffer solution at pH 5: pH 5, 37° C., up to 2 or 3 hours; for Conversion to Alvocidib at pH 7.4: pH 7.4, 37° C., up to 3 hours
Summary of the method: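 HPLC read-out: residual parent and Alvocidib production rate after 0, 0.5, 1, 2 and 3 hours. Compounds sat at 25 umol/L, 37° C, in buffers from pH 5.0 to 7.4 (50 mM citrate below pH 6.0, 50 mM phosphate otherwise).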

CCN(CC1CCCCN1)C(=O)Oc1cc(O)c2c(=O)cc(-c3ccccc3Cl)oc2c1[C@H]1CCN(C)C[C@H]1O (stereo partly drawn) [Example 7, 2-(2-chlorophenyl)-5-hydroxy-8-[(3S,4R)-3-hydroxy-1-methylpiperidin-4-yl]-4-oxo-4H-1-benzopyran-7-yl ethyl[(piperidin-2-yl)methyl]carbamate dihydrochloride]
Production rate of Alvocidib (pH5.0, 0 hr, 37° C.): 0.0%
Residual rate (pH5.0, 0 hr, 37° C.): 100.0%
Stability in buffer solution at pH 5: stable
Production rate of Alvocidib (pH5.0, 0.5 hr, 37° C.): 0.0%
Residual rate (pH5.0, 0.5 hr, 37° C.): 100.0%
Production rate of Alvocidib (pH5.0, 1 hr, 37° C.): 0.0%
Residual rate (pH5.0, 1 hr, 37° C.): 100.0%
Production rate of Alvocidib (pH5.0, 2 hr, 37° C.): 1.5%
Residual rate (pH5.0, 2 hr, 37° C.): 98.5%
Production rate of Alvocidib (pH5.0, 3 hr, 37° C.): 2.3%
Residual rate (pH5.0, 3 hr, 37° C.): 97.7%
Production rate of Alvocidib (pH5.5, 0 hr, 37° C.): 0.0%
Residual rate (pH5.5, 0 hr, 37° C.): 100.0%
Production rate of Alvocidib (pH5.5, 0.5 hr, 37° C.): 1.2%
Residual rate (pH5.5, 0.5 hr, 37° C.): 98.8%
Production rate of Alvocidib (pH5.5, 1 hr, 37° C.): 2.0%
Residual rate (pH5.5, 1 hr, 37° C.): 98.0%
Production rate of Alvocidib (pH5.5, 2 hr, 37° C.): 3.8%
Residual rate (pH5.5, 2 hr, 37° C.): 96.2%
Production rate of Alvocidib (pH5.5, 3 hr, 37° C.): 5.1%
Residual rate (pH5.5, 3 hr, 37° C.): 94.9%
Production rate of Alvocidib (pH6.0, 0 hr, 37° C.): 1.1%
Residual rate (pH6.0, 0 hr, 37° C.): 98.9%
Production rate of Alvocidib (pH6.0, 0.5 hr, 37° C.): 4.0%
Residual rate (pH6.0, 0.5 hr, 37° C.): 96.0%
Production rate of Alvocidib (pH6.0, 1 hr, 37° C.): 5.4%
Residual rate (pH6.0, 1 hr, 37° C.): 94.6%
Production rate of Alvocidib (pH6.0, 2 hr, 37° C.): 12.5%
Residual rate (pH6.0, 2 hr, 37° C.): 87.5%
Production rate of Alvocidib (pH6.0, 3 hr, 37° C.): 16.6%
Residual rate (pH6.0, 3 hr, 37° C.): 83.4%
Production rate of Alvocidib (pH6.5, 0 hr, 37° C.): 3.3%
Residual rate (pH6.5, 0 hr, 37° C.): 96.7%
Production rate of Alvocidib (pH6.5, 0.5 hr, 37° C.): 12.4%
Residual rate (pH6.5, 0.5 hr, 37° C.): 87.6%
Production rate of Alvocidib (pH6.5, 1 hr, 37° C.): 16.0%
Residual rate (pH6.5, 1 hr, 37° C.): 84.0%
Production rate of Alvocidib (pH6.5, 2 hr, 37° C.): 26.8%
Residual rate (pH6.5, 2 hr, 37° C.): 73.2%
Production rate of Alvocidib (pH6.5, 3 hr, 37° C.): 35.2%
Residual rate (pH6.5, 3 hr, 37° C.): 64.8%
Production rate of Alvocidib (pH7.0, 0 hr, 37° C.): 10.9%
Residual rate (pH7.0, 0 hr, 37° C.): 89.1%
Production rate of Alvocidib (pH7.0, 0.5 hr, 37° C.): 27.3%
Residual rate (pH7.0, 0.5 hr, 37° C.): 72.7%
Production rate of Alvocidib (pH7.0, 1 hr, 37° C.): 38.0%
Residual rate (pH7.0, 1 hr, 37° C.): 62.0%
Production rate of Alvocidib (pH7.0, 2 hr, 37° C.): 52.9%
Residual rate (pH7.0, 2 hr, 37° C.): 47.1%
Production rate of Alvocidib (pH7.0, 3 hr, 37° C.): 70.5%
Residual rate (pH7.0, 3 hr, 37° C.): 29.5%
Production rate of Alvocidib (pH7.4, 0 hr, 37° C.): 19.0%
Residual rate (pH7.4, 0 hr, 37° C.): 81.0%
Conversion to Alvocidib at pH 7.4: rapidly converted to Alvocidib
Production rate of Alvocidib (pH7.4, 0.5 hr, 37° C.): 50.2%
Residual rate (pH7.4, 0.5 hr, 37° C.): 49.8%
Production rate of Alvocidib (pH7.4, 1 hr, 37° C.): 60.8%
Residual rate (pH7.4, 1 hr, 37° C.): 39.2%
Production rate of Alvocidib (pH7.4, 2 hr, 37° C.): 69.0%
Residual rate (pH7.4, 2 hr, 37° C.): 31.0%
Production rate of Alvocidib (pH7.4, 3 hr, 37° C.): 81.0%
Residual rate (pH7.4, 3 hr, 37° C.): 19.0%

CN1CC[C@H](c2c(OC(=O)N(C)CC3CCCCN3)cc(O)c3c(=O)cc(-c4ccccc4Cl)oc23)[C@H](O)C1 (stereo partly drawn) [Example 8, 2-(2-chlorophenyl)-5-hydroxy-8-[(3S,4R)-3-hydroxy-1-methylpiperidin-4-yl]-4-oxo-4H-1-benzopyran-7-yl methyl[(piperidin-2-yl)methyl]carbamate]
Production rate of Alvocidib (pH5.0, 0 hr, 37° C.): 0.7%
Residual rate (pH5.0, 0 hr, 37° C.): 95.4%
Stability in buffer solution at pH 5: stable
Production rate of Alvocidib (pH5.0, 0.5 hr, 37° C.): 1.2%
Residual rate (pH5.0, 0.5 hr, 37° C.): 95.1%
Production rate of Alvocidib (pH5.0, 1 hr, 37° C.): 1.6%
Residual rate (pH5.0, 1 hr, 37° C.): 95.0%
Production rate of Alvocidib (pH5.0, 2 hr, 37° C.): 2.0%
Residual rate (pH5.0, 2 hr, 37° C.): 94.7%
Production rate of Alvocidib (pH5.5, 0 hr, 37° C.): 0.5%
Residual rate (pH5.5, 0 hr, 37° C.): 95.9%
Production rate of Alvocidib (pH5.5, 0.5 hr, 37° C.): 1.6%
Residual rate (pH5.5, 0.5 hr, 37° C.): 95.0%
Production rate of Alvocidib (pH5.5, 1 hr, 37° C.): 2.5%
Residual rate (pH5.5, 1 hr, 37° C.): 94.3%
Production rate of Alvocidib (pH5.5, 2 hr, 37° C.): 3.5%
Residual rate (pH5.5, 2 hr, 37° C.): 93.4%
Production rate of Alvocidib (pH6.0, 0 hr, 37° C.): 0.8%
Residual rate (pH6.0, 0 hr, 37° C.): 95.7%
Production rate of Alvocidib (pH6.0, 0.5 hr, 37° C.): 4.4%
Residual rate (pH6.0, 0.5 hr, 37° C.): 92.1%
Production rate of Alvocidib (pH6.0, 1 hr, 37° C.): 7.3%
Residual rate (pH6.0, 1 hr, 37° C.): 89.4%
Production rate of Alvocidib (pH6.0, 2 hr, 37° C.): 10.3%
Residual rate (pH6.0, 2 hr, 37° C.): 86.5%
Production rate of Alvocidib (pH6.5, 0 hr, 37° C.): 1.5%
Residual rate (pH6.5, 0 hr, 37° C.): 95.0%
Production rate of Alvocidib (pH6.5, 0.5 hr, 37° C.): 11.2%
Residual rate (pH6.5, 0.5 hr, 37° C.): 85.3%
Production rate of Alvocidib (pH6.5, 1 hr, 37° C.): 18.9%
Residual rate (pH6.5, 1 hr, 37° C.): 77.7%
Production rate of Alvocidib (pH6.5, 2 hr, 37° C.): 25.6%
Residual rate (pH6.5, 2 hr, 37° C.): 71.2%
Production rate of Alvocidib (pH7.0, 0 hr, 37° C.): 4.0%
Residual rate (pH7.0, 0 hr, 37° C.): 92.5%
Production rate of Alvocidib (pH7.0, 0.5 hr, 37° C.): 27.3%
Residual rate (pH7.0, 0.5 hr, 37° C.): 69.3%
Production rate of Alvocidib (pH7.0, 1 hr, 37° C.): 40.0%
Residual rate (pH7.0, 1 hr, 37° C.): 56.7%
Production rate of Alvocidib (pH7.0, 2 hr, 37° C.): 48.2%
Residual rate (pH7.0, 2 hr, 37° C.): 49.0%
Production rate of Alvocidib (pH7.4, 0 hr, 37° C.): 9.7%
Residual rate (pH7.4, 0 hr, 37° C.): 86.7%
Conversion to Alvocidib at pH 7.4: rapidly converted to Alvocidib
Production rate of Alvocidib (pH7.4, 0.5 hr, 37° C.): 45.1%
Residual rate (pH7.4, 0.5 hr, 37° C.): 51.4%
Production rate of Alvocidib (pH7.4, 1 hr, 37° C.): 55.2%
Residual rate (pH7.4, 1 hr, 37° C.): 41.7%
Production rate of Alvocidib (pH7.4, 2 hr, 37° C.): 58.2%
Residual rate (pH7.4, 2 hr, 37° C.): 38.4%

CCCN(CC1CCCCN1)C(=O)Oc1cc(O)c2c(=O)cc(-c3ccccc3Cl)oc2c1[C@H]1CCN(C)C[C@H]1O (stereo partly drawn) [Example 9, 2-(2-chlorophenyl)-5-hydroxy-8-[(3S,4R)-3-hydroxy-1-methylpiperidin-4-yl]-4-oxo-4H-1-benzopyran-7-yl [(piperidin-2-yl)methyl]propylcarbamate]
Efficiency of conversion to Alvocidib (buffer solution, 37° C.): higher efficiency
Production rate of Alvocidib (pH5.0, 0 hr, 37° C.): 1.4%
Residual rate (pH5.0, 0 hr, 37° C.): 96.2%
Stability in buffer solution at pH 5: stable
Production rate of Alvocidib (pH5.0, 0.5 hr, 37° C.): 1.7%
Residual rate (pH5.0, 0.5 hr, 37° C.): 95.9%
Production rate of Alvocidib (pH5.0, 1 hr, 37° C.): 2.1%
Residual rate (pH5.0, 1 hr, 37° C.): 95.6%
Production rate of Alvocidib (pH5.0, 2 hr, 37° C.): 2.8%
Residual rate (pH5.0, 2 hr, 37° C.): 94.9%
Production rate of Alvocidib (pH5.0, 3 hr, 37° C.): 3.6%
Residual rate (pH5.0, 3 hr, 37° C.): 94.0%
Production rate of Alvocidib (pH5.5, 0 hr, 37° C.): 1.4%
Residual rate (pH5.5, 0 hr, 37° C.): 96.2%
Production rate of Alvocidib (pH5.5, 0.5 hr, 37° C.): 2.4%
Residual rate (pH5.5, 0.5 hr, 37° C.): 95.2%
Production rate of Alvocidib (pH5.5, 1 hr, 37° C.): 3.4%
Residual rate (pH5.5, 1 hr, 37° C.): 94.4%
Production rate of Alvocidib (pH5.5, 2 hr, 37° C.): 5.2%
Residual rate (pH5.5, 2 hr, 37° C.): 92.5%
Production rate of Alvocidib (pH5.5, 3 hr, 37° C.): 7.2%
Residual rate (pH5.5, 3 hr, 37° C.): 90.5%
Production rate of Alvocidib (pH6.0, 0 hr, 37° C.): 1.5%
Residual rate (pH6.0, 0 hr, 37° C.): 96.2%
Production rate of Alvocidib (pH6.0, 0.5 hr, 37° C.): 4.9%
Residual rate (pH6.0, 0.5 hr, 37° C.): 92.9%
Production rate of Alvocidib (pH6.0, 1 hr, 37° C.): 8.2%
Residual rate (pH6.0, 1 hr, 37° C.): 89.5%
Production rate of Alvocidib (pH6.0, 2 hr, 37° C.): 14.4%
Residual rate (pH6.0, 2 hr, 37° C.): 83.0%
Production rate of Alvocidib (pH6.0, 3 hr, 37° C.): 20.8%
Residual rate (pH6.0, 3 hr, 37° C.): 76.6%
Production rate of Alvocidib (pH6.5, 0 hr, 37° C.): 1.7%
Residual rate (pH6.5, 0 hr, 37° C.): 95.9%
Production rate of Alvocidib (pH6.5, 0.5 hr, 37° C.): 11.2%
Residual rate (pH6.5, 0.5 hr, 37° C.): 86.4%
Production rate of Alvocidib (pH6.5, 1 hr, 37° C.): 20.2%
Residual rate (pH6.5, 1 hr, 37° C.): 77.3%
Production rate of Alvocidib (pH6.5, 2 hr, 37° C.): 35.4%
Residual rate (pH6.5, 2 hr, 37° C.): 61.9%
Production rate of Alvocidib (pH6.5, 3 hr, 37° C.): 49.0%
Residual rate (pH6.5, 3 hr, 37° C.): 48.4%
Production rate of Alvocidib (pH7.0, 0 hr, 37° C.): 2.2%
Residual rate (pH7.0, 0 hr, 37° C.): 95.4%
Production rate of Alvocidib (pH7.0, 0.5 hr, 37° C.): 24.1%
Residual rate (pH7.0, 0.5 hr, 37° C.): 73.1%
Production rate of Alvocidib (pH7.0, 1 hr, 37° C.): 42.0%
Residual rate (pH7.0, 1 hr, 37° C.): 55.1%
Production rate of Alvocidib (pH7.0, 2 hr, 37° C.): 66.1%
Residual rate (pH7.0, 2 hr, 37° C.): 31.0%
Production rate of Alvocidib (pH7.0, 3 hr, 37° C.): 81.0%
Residual rate (pH7.0, 3 hr, 37° C.): 16.7%
Production rate of Alvocidib (pH7.4, 0 hr, 37° C.): 3.4%
Residual rate (pH7.4, 0 hr, 37° C.): 94.3%
Conversion to Alvocidib at pH 7.4: rapidly converted to Alvocidib
Production rate of Alvocidib (pH7.4, 0.5 hr, 37° C.): 48.7%
Residual rate (pH7.4, 0.5 hr, 37° C.): 48.7%
Production rate of Alvocidib (pH7.4, 1 hr, 37° C.): 73.6%
Residual rate (pH7.4, 1 hr, 37° C.): 23.7%
Production rate of Alvocidib (pH7.4, 2 hr, 37° C.): 92.4%
Residual rate (pH7.4, 2 hr, 37° C.): 5.6%
Production rate of Alvocidib (pH7.4, 3 hr, 37° C.): 96.7%
Residual rate (pH7.4, 3 hr, 37° C.): 1.1%
